Measurements as given in ChEMBL document CHEMBL5375952, “Discovery of Novel 8-Hydroxyquinoline Derivatives with Potent In Vitro and In Vivo Antifungal Activity” (J Med Chem, 2023).

Tests used:
Type in all cases: functional
[1] = test system: Candida albicans; experiment: Synergistic antifungal activity against FLC-resistant Candida albicans 100 assessed as MIC of FLC incubated for 48 hrs by broth microdilution method
[2] = test system: Candida albicans; experiment: Synergistic antifungal activity against FLC-resistant Candida albicans 819 assessed as MIC of FLC incubated for 48 hrs by broth microdilution method
[3] = test system: Candida albicans; experiment: Synergistic antifungal activity against FLC-resistant Candida albicans 11 assessed as fungal growth inhibition incubated for 48 hrs in presence of FLC by broth microdilution method

SMILES: CCN(CC)c1ccc(C(NC(=O)C(C)C)c2ccc3cccnc3c2O)cc1 (stereo not drawn)
- MIC [1]: 0.25 µg/mL
- MIC [2]: 0.25 µg/mL
- MIC [3]: 0.008 µg/mL
